Data published in patent publication US6476034B2, “Antiviral azaindole derivatives” (priority 2000, dated 2002).

Test system: single-round infectious HIV-1 reporter virus
Test: microbe, parasite or virus in culture
Type: cell-based
Settings: for EC50: Human immunodeficiency virus 1, HeLa-CD4/CCR5; for inhibition at 10 µM: Human immunodeficiency virus 1, HeLa-CD4/CCR5, 72 h, read-out: Average % inhibition at or <10 μM; for Average % inhibition at or <10 μM: HeLa CD4 CCR5 cells, luciferase expression 3 days (72 hours) after infection, compounds tested below 10 μM: % inhibition at 10 μM extrapolated with XLfit, mean of at least two experiments

SMILES | EC50 [nM] | inhibition at 10 µM [%] | Average % inhibition at or <10 μM [%]
C[C@@H]1CN(C(=O)c2ccccc2)CCN1C(=O)C(=O)c1c[nH]c2nc(C#N)ccc12 [Compound 12a, (R)-N-(benzoyl)-3-methyl-N′-[(6-cyano-7-azaindol-3-yl)-oxoacetyl]-piperazine] | < 1000 | > 99 | 
CC(=O)Oc1ccc2c(C(=O)C(=O)N3CCN(C(=O)c4ccccc4)C[C@H]3C)cn(C(C)=O)c2n1 [Compound 13a, (R)-N-(benzoyl)-3-methyl-N′-[(1-acetyl-6-acetoxy-7-azaindol-3-yl)-oxoacetyl]-piperazine] | < 1000 | > 99 | 
C[C@@H]1CN(C(=O)c2ccccc2)CCN1C(=O)C(=O)c1c[nH]c2nc(O)ccc12 [Compound 14a, (R)-N-(benzoyl)-3-methyl-N′-[(6-hydroxyl-7-azaindol-3-yl)-oxoacetyl]-piperazine] |  | > 99 | 
C[C@@H]1CN(C(=O)c2ccccc2)CCN1C(=O)C(=O)c1c[nH]c2c1c([N+](=O)[O-])cc[n+]2[O-] [Compound 15a, (R)-N-(benzoyl)-3-methyl-N′-[(4-nitro-7-oxide-7-azaindol-3-yl)-oxoacetyl]-piperazine] |  |  | 70
COc1cc[n+]([O-])c2[nH]cc(C(=O)C(=O)N3CCN(C(=O)c4ccccc4)C[C@H]3C)c12 [Compound 16a, (R)-N-(benzoyl)-3-methyl-N′-[(4-methoxy-7-oxide-7-azaindol-3-yl)-oxoacetyl]-piperazine] |  |  | >99
CCOc1cc[n+]([O-])c2[nH]cc(C(=O)C(=O)N3CCN(C(=O)c4ccccc4)C[C@H]3C)c12 [Compound 16d, (R)-N-(benzoyl)-3-methyl-N′-[(4-ethoxy-7-oxide-7-azaindol-3-yl)-oxoacetyl]-piperazine] |  |  | 88
CCCSc1cc[n+]([O-])c2[nH]cc(C(=O)C(=O)N3CCN(C(=O)c4ccccc4)C[C@H]3C)c12 [Compound 16e, (R)-N-(benzoyl)-3-methyl-N′-[(4-propylthio-7-oxide-7-azaindol-3-yl)-oxoacetyl]-piperazine] |  |  | 50
COc1ccnc2[nH]cc(C(=O)C(=O)N3CCN(C(=O)c4ccccc4)C[C@H]3C)c12 [Compound 17a, (R)-N-(benzoyl)-3-methyl-N′-[(4-methoxy-7-azaindol-3-yl)-oxoacetyl]-piperazine] | < 1000 | > 99 | 
C[C@@H]1CN(C(=O)c2ccccc2)CCN1C(=O)C(=O)c1c[nH]c2nccc(OCC(F)(F)F)c12 [Compound 17b, (R)-N-(benzoyl)-3-methyl-N′-[(4-(2,2,2-trifluoroethoxy)-7-azaindol-3-yl)-oxoacetyl]-piperazine] | < 1000 | 99 | 
CC(C)Oc1ccnc2[nH]cc(C(=O)C(=O)N3CCN(C(=O)c4ccccc4)C[C@H]3C)c12 [Compound 17c, (R)-N-(benzoyl)-3-methyl-N′-[(4-(1-methylethoxy)-7-azaindol-3-yl)-oxoacetyl]-piperazine] | < 1000 | > 99 | 
COc1ccnc2[nH]cc(C(=O)C(=O)N3CCN(C(=O)c4ccccc4)C[C@@H]3C)c12 [Compound 17d, (S)-N-(benzoyl)-3-methyl-N′-[(4-methoxy-7-azaindol-3-yl)-oxoacetyl]-piperazine] | < 1000 | 98 | 
COc1ccnc2[nH]cc(C(=O)C(=O)N3CCN(C(=O)c4ccccc4)CC3C)c12 (stereo not drawn) [Compound 17e, N-(benzoyl)-3-methyl-N′-[(4-methoxy-7-azaindol-3-yl)-oxoacetyl]-piperazine] | < 1000 | 94 | 
CCCSc1ccc2c(C(=O)C(=O)N3CCN(C(=O)c4ccccc4)C[C@H]3C)c[nH]c2n1 [Compound 17f, (R)-N-(benzoyl)-3-methyl-N′-[(6-propylthiol-7-azaindol-3-yl)-oxoacetyl]-piperazine] |  |  | >99
CNc1ccnc2[nH]cc(C(=O)C(=O)N3CCN(C(=O)c4ccccc4)C[C@H]3C)c12 [Compound 17h, (R)-N-(benzoyl)-3-methyl-N′-[(4-methylamino-7-azaindol-3-yl)-oxoacetyl]-piperazine] | > 500 |  | 
